Assays:
CEM T cells [1] = test: Emission spectra in living and apoptotic cell suspensions, and Ca2+ dependence; type: cell-based, human
Procedure: FIG. 3: Emission spectra of the probe F2N12S in living (solid line) and apoptotic (dash line) CEM cells. Excitation wavelength was 400 nm. Final probe concentration was 0.1 μM.
FIG. 4: Ca^2+ dependence of F2N12S emission spectra in apoptotic CEM cells. The excitation wavelength was 400 nm. The spectra were recorded at Ca^2+ concentrations of 0.2, 0.4, 0.8, 1.2 and 2 mM and normalized. Final probe concentration was 0.1 μM.
Human lymphoid CEM T cells were cultured in X-vivo 15 medium (Cambrex, France) at 37° C. in humidified 5% CO2 atmosphere. Cell viability was checked by trypan blue exclusion. Cells were seeded at 5×10^5 cells/ml in the presence or absence of actinomycin D (0.5 μg/ml) for 18 h. […]
The cells were washed twice by HBSS before each experiment to eliminate fetal bovine serum. […] For fluorescence measurements with the probe of the invention F2N12S (fluorometry, flow cytometry and confocal microscopy), cells were resuspended in HBSS with 0.1 μM F2N12S. […] The staining pattern of the cells was checked with a Confocal Imaging System MRC-1024 (BioRad) to ascertain that fluorescence originates from the plasma membrane.
Fluorescence spectra were recorded on a FLUOROMAX-3® (spectrofluorometer) (JobinYvon Horiba). The excitation wavelength for fluorescence emission spectra of F2N12S probes was 400 nm. […]

CEM T cells [2] = test: Two-color confocal ratiometric imaging of normal and apoptotic cells; type: cell-based, human
Procedure: FIG. 5: Confocal fluorescence ratiometric images of CEM cells stained with F2N12S: normal cells (a); apoptotic cells, obtained by FITC-annexin based sorting of cells treated with actinomycin (b); and actinomycin-treated without cell sorting (c). The images were recorded after a 10 min incubation of the probe with the cells. Scale bar, 10 μm.
Human lymphoid CEM T cells were cultured in X-vivo 15 medium (Cambrex, France) at 37° C. in humidified 5% CO2 atmosphere. Cell viability was checked by trypan blue exclusion. Cells were seeded at 5×10^5 cells/ml in the presence or absence of actinomycin D (0.5 μg/ml) for 18 h. Cells were pelleted by centrifugation at 1500 rpm for 5 min and resuspended at 1×10^6 cells/ml in X-vivo 15 medium for experiments.
The cells were washed twice by HBSS before each experiment to eliminate fetal bovine serum. In sorting experiments, cells were resuspended in the binding buffer and labeled with the annexin V-FITC kit. For fluorescence measurements with the probe of the invention F2N12S (fluorometry, flow cytometry and confocal microscopy), cells were resuspended in HBSS with 0.1 μM F2N12S. Then, the cell suspension was placed in a shaker bath for 10 min in the incubator. The staining pattern of the cells was checked with a Confocal Imaging System MRC-1024 (BioRad) to ascertain that fluorescence originates from the plasma membrane.
(§1) For collecting cell images, a Laser Scanning Confocal Imaging System MRC-1024 (Bio-Rad) was used. Cells in chambered cover glass were prepared by following the preparation procedure described above. The 442 nm line of a HeCd laser was used as the excitation light source. Emission was collected by using two filters: 485/30 for the N* band and 585LP for the T* band. Collected images were analyzed by the Amira 3.0 software.
Two-color confocal fluorescence microscopy of CEM T cells stained with F2N12S was performed. Emission light was collected in two spectral regions: at 470-500 nm to monitor the emission of the N* band and above 585 nm to collect the emission of the T* band. Ratiometric images were obtained by dividing the intensity of the T* band by the intensity of the N* band and were used to monitor the cell plasma membrane changes induced by addition of actinomycin D (FIG. 5, a-c).

T lymphocytes = test: Laser scanning confocal ratiometric imaging of T lymphocytes; type: cell-based
Procedure: FIG. 9: Laser scanning confocal imaging of T lymphocytes stained with annexin V-FITC (a) and F2N12S (b and c). Combination of transmission and fluorescence images of cells treated with actinomycin D for 18 hours (please complete this sentence). […] Due to their low binding to annexin V, normal cells are not visualized in the fluorescence images. (b and c) Ratiometric images of normal (b) and actinomycin D-treated (c) cells stained with 0.2 μM F2N12S. […] The size of the images is 60×73.1 μm.
FIG. 10: Time-series of confocal fluorescence ratiometric images of actinomycin D-treated T lymphocytes stained with F2N12S. The cells were treated with actinomycin D for 18 hours and then, incubated with the probe (0.2 μM) for 5 min. Images were recorded at 1 min (a), 10 min (b) and 20 min (c) post incubation. […] The size of the images is 60×73.1 μm.
as §1
To further compare F2N12S and annexinV-derived probes, two-color ratiometric images of F2N12S-labeled cells undergoing apoptosis were recorded by laser scanning confocal microscopy and compared with intensity based images obtained using annexin V-FITC. […] Moreover, the fluorescence intensity of apoptotic cells varies considerably from cell to cell. These differences are difficult to interpret since the intensity depends on the probe concentration as well as on the size and confluence of the cells. […] According to our spectroscopy and flow cytometry data, the latter cells are apoptotic. […] Thus, unlike annexin V-FITC, these probes provide an absolute parameter, the intensity ratio, which can be calibrated, and can characterize the level of apoptosis independently of the probe/cell concentration and the excitation light intensity. In addition, the inventors have observed that in normal cells and cells on the initial steps of apoptosis, the T*/N* intensity ratio is not evenly distributed within the plasma membrane of a given cell. This may indicate an inhomogeneous lipid composition of their plasma membranes that is likely related to the presence of lipid domains.
The inventors also follow apoptotic transformation of the plasma membrane as a function of time. Normal and actinomycin D-treated cells were stained with the corresponding probe and the fluorescence images were subsequently recorded during 20 min. […]

[3] = Fluorescence properties of the probes (absorption maximum, band resolution); type: physicochemical
From the text: The probe TCN12S is an analog of F2N12S and was synthesized to improve the fluorescence properties. Indeed, substitution of the 2-phenyl group with 2-thienyl shifts the absorption maximum from 420 nm to 445 nm, making this probe suitable for excitation with a He/Cd laser (442 nm). Moreover, the resolution between the two emission bands increases from 90 nm (F2N12S) to 120 nm (TCN12S), favoring two-color ratiometric detection.

[4] = actinomycin D-treated cells not sorted by cytometry

1-dodecanaminium, N-[[2-[4-Diethylaminophenyl]-3-hydroxychromon-6-yl]-methyl]-N-methyl-N-(3-sulfopropyl)-, inner salt [F2N12S]
relative intensity of the short-wavelength band, apoptotic versus living cells (CEM T cells [1]; actinomycin D-induced apoptosis, cells sorted with FITC-annexin, excitation 400 nm, probe 0.1 μM): ~2 fold
dependence of the response on Ca2+ concentration (CEM T cells [1]; apoptotic cells, Ca2+ 0-2 mM): insensitive
fluorescence intensity ratio T*/N*, apoptotic cells (CEM T cells [2]; [4]): ~0.25
fluorescence intensity ratio T*/N*, living cells (CEM T cells [2]; [4]): ~1
fluorescence intensity ratio T*/N* at the plasma membrane (CEM T cells [2]; apoptotic cells obtained by cell sorting, average): around 0.25
change in the T*/N* ratio, non-treated versus apoptotic cells (CEM T cells [2]; confocal imaging): 4 fold
fluorescence intensity ratio T*/N* at the plasma membrane (CEM T cells [2]; non-treated cells, N* 470-500 nm, T* above 585 nm): ~1
time-dependent change of the fluorescence images (T lymphocytes; actinomycin D-treated cells, images recorded during 20 min): relatively fast change in the emission color
which cells are stained in fluorescence images (T lymphocytes; normal and actinomycin D-treated cells): stains both normal (FIG. 9b) and apoptotic cells (FIG. 9c) but in different colors
absorption maximum [3]: 420 nm
resolution between the two emission bands [3]: 90 nm

Reference: patent US7880021B2, “Compounds and kits for the detection and the quantification of cell apoptosis” (Centre National de la Recherche Scientifique (CNRS), priority 2005, dated 2011)
